# In ChEMBL document CHEMBL1201862, “PubChem BioAssay data set” (2004):
# The source made the active and inactive calls. For most assays here, no stated cut-off is given here; in the data, actives have a measured EC50 and inactives only a lower limit.
# Test system: Streptococcus sp. 'group A'
# Assay: growth inhibition of control SK(-) GAS strain, dose response, counter-screen for streptokinase expression inhibitor project, luminescence, kanamycin, BacTiterGlo, confirmation (AID 1900)
# Format: functional, organism-based
# Conditions: not given
row,Compound,EC50
1,CC12CCC(c3c(C(=O)Nc4nccs4)nn(-c4ccccc4)c31)C2(C)C (stereo not drawn),6.56 µM (active)
2,CC(C)c1ccc2[nH]c(O)c(N=NC(=O)c3cccc(S(=O)(=O)N4CCCCC4)c3)c2c1,4.39 µM (active)
3,O=C(NCc1ccccn1)C(=O)Nc1nc(C23CC4CC(CC(C4)C2)C3)cs1,1.66 µM (active)
4,O=[N+]([O-])c1ccc(N=Nc2ccc(O)cc2O)cc1,2.44 µM (active)

# Test system: not listed separately
# Assay: cytotoxicity toward NIH3T3 fibroblasts, dose response, counter-screen, cell-based, ATP luminescence, mouse fibroblasts (AID 2010);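 further: cells exposed to compound for about 90 hours before reading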
# Format: functional
# Conditions: not given
row,Compound,EC50
1,CC1(C)CC(N2CCN(Cc3ccccc3)CC2)=CC(=[N+]2CCCCC2)C1,> 60 µM (not active)
2,O=[N+]([O-])c1ccc(-n2cnc3ccccc32)c([N+](=O)[O-])c1,> 60 µM (inconclusive)
3,COc1ccc(C2Nc3ccc4ccccc4c3-c3c2c(=O)oc2ccccc32)cc1 (stereo not drawn),> 60 µM (not active)
4,CC(C)c1ccc2[nH]c(O)c(N=NC(=O)c3cccc(S(=O)(=O)N4CCCCC4)c3)c2c1,> 60 µM (not active)
5,COc1ccc(S(=O)(=O)N2CCN(C(=O)c3ccc([N+](=O)[O-])o3)CC2)cc1,> 30 µM (not active)

# Test system: not listed separately
# Assay: microbe, parasite or virus in culture
# Format: functional
# Conditions: Mycobacterium tuberculosis
row,Compound,CC50
1,CSC(S)=NCc1cccnc1,9.84 µM (active)
2,COCC(=O)O[C@]1(CCN(C)CCCc2nc3ccccc3[nH]2)CCc2cc(F)ccc2[C@@H]1C(C)C,14.2 µM (active)
3,Cc1ccc(C(=O)N2N=C(c3ccc(NS(C)(=O)=O)cc3)CC2c2cccs2)cc1 (stereo not drawn),> 40 µM (active)
4,CC(C)c1ccc2c(c1)CCC1C(C)(CN)CCCC21C (stereo not drawn),7.48 µM (active)
5,N#C/C(=C\c1ccc(-c2ccc(Br)cc2)o1)C(=O)NCCc1c[nH]c2ccccc12,> 40 µM (active)
6,O=C(NCc1ccccn1)C(=O)Nc1nc(C23CC4CC(CC(C4)C2)C3)cs1,36 µM (active)

# Test system: not listed separately
# Assay: NIH-3T3 fibroblast cytotoxicity, dose response, cytotoxicity control, cell-based, fluorescence, Alamar Blue, secondary assay (AID 2327);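 further: NIH-3T3 mouse fibroblasts cultured with fluconazole at 8 µg/mL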
# Format: functional
# Conditions: not given
row,Compound,EC50
1,CSC(S)=NCc1cccnc1,> 160 µM (inactive)
2,CC1(C)CC(N2CCN(Cc3ccccc3)CC2)=CC(=[N+]2CCCCC2)C1,> 160 µM (inactive)
3,CC(C)c1ccc2c(c1)CCC1C(C)(CN)CCCC21C (stereo not drawn),9.63 µM (inconclusive)

# Test system: not listed separately
# Assay: growth suppression of beta-catenin-knockout colon cells, dose response, cell-based, HCT116, human colon tumor (AID 1045);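 further: HCT116 colon tumor cells with beta catenin knocked out; cells exposed to compound for 60 hours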
# Format: functional
# Conditions: not given
row,Compound,EC50
1,O=C(Cn1c(=O)oc2cc(S(=O)(=O)N3CCCCC3)ccc21)N1CCc2ccccc21,16.9 µM (active)
2,CCOC(=O)c1sc(NC(=O)Nc2ccc(Cl)cc2)nc1C,80.8 µM (active)
3,COc1ccc(C2Nc3ccc4ccccc4c3-c3c2c(=O)oc2ccccc32)cc1 (stereo not drawn),9.13 µM (active)
4,CC12CCC(c3c(C(=O)Nc4nccs4)nn(-c4ccccc4)c31)C2(C)C (stereo not drawn),24.2 µM (active)
5,Cc1cc2cc(C)c3nnc(SCC(=O)Nc4ccc(S(=O)(=O)N5CCCCC5)cc4)n3c2cc1C,7.24 µM (active)
6,Cc1ccc(-c2nnc(S)n2/N=C/c2c(C)nn(-c3ccccc3)c2C)cc1,26 µM (active)

# Test system: H4
# Assay: Luminescence Cell-Based Dose Response HTS to Identify Activators of 5'UTR Stem-Loop Driven Prion Protein mRNA Translation in H4 Neuroglioblastoma Cells. [Related pubchem assays: 1829 (Project Summary), 1814 (Primary HTS)]
# Format: functional
# Conditions: Homo sapiens
row,Compound,EC50
1,CCOc1ccc(-c2c(=O)n(OCc3ccc([N+](=O)[O-])cc3)c3ccccc3[n+]2[O-])cc1,> 120 µM (not active)
2,CCn1cc(SCC(=O)N2CCOCC2)c2ccccc21,> 120 µM (not active)
3,O=C(CSCC(=O)N1CCOCC1)Nc1nc(-c2ccc3c(c2)OCO3)cs1,> 120 µM (not active)
4,COc1ccc(S(=O)(=O)N2CCN(C(=O)c3ccc([N+](=O)[O-])o3)CC2)cc1,7.96 µM (active)

# Test system: INS1
# Assay: beta cell apoptosis inhibitors, cytokine rescue, dose response, luminescence, retest (AID 449756);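 further: cell death triggered by IL-1 beta plus TNF-alpha plus IFN-gamma mixture; protective hits raise ATP signal compared with cytokine alone wells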
# Format: functional, cell-based
# Conditions: Rattus norvegicus
row,Compound,AC50
1,CC1(C)CC(N2CCN(Cc3ccccc3)CC2)=CC(=[N+]2CCCCC2)C1,2.16 µM (active)
2,O=[N+]([O-])c1ccc(-n2cnc3ccccc32)c([N+](=O)[O-])c1,14.3 µM (active)

# Test system: not listed separately
# Assay: Luminescence Cell-Based Dose Confirmation HTS to Identify Activators of 5'UTR Stem-Loop Driven Alpha-Synuclein mRNA Translation in H4 Neuroglioblastoma Cells. [Related pubchem assays: 1829 (Project Summary), 1814 (Primary HTS)]
# Format: functional
# Conditions: not given
row,Compound,EC50
1,CCOc1ccc(-c2c(=O)n(OCc3ccc([N+](=O)[O-])cc3)c3ccccc3[n+]2[O-])cc1,> 120 µM (not active)
2,CCn1cc(SCC(=O)N2CCOCC2)c2ccccc21,5.63 µM (active)
3,O=C(CSCC(=O)N1CCOCC1)Nc1nc(-c2ccc3c(c2)OCO3)cs1,86.3 µM (active)
4,COc1ccc(S(=O)(=O)N2CCN(C(=O)c3ccc([N+](=O)[O-])o3)CC2)cc1,> 120 µM (not active)

# Test system: not listed separately
# Assay: HEp-2 cell cytotoxicity, dose response, cytotoxicity control for RSV inhibitor project, HTS (AID 2410)
# Format: functional
# Conditions: human respiratory syncytial virus
row,Compound,CC50
1,CC(C)c1ccc2[nH]c(O)c(N=NC(=O)c3cccc(S(=O)(=O)N4CCCCC4)c3)c2c1,7.69 µM (active)

# Test system: Streptococcus
# Assay: Group A Streptococcus viability loss, dose response, counter-screen for streptokinase expression inhibitor project, luminescence, BacTiterGlo (AID 1915);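 further: potency for reduction of bacterial viability or growth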
# Format: functional, organism-based
# Conditions: not given
row,Compound,EC50
1,CC12CCC(c3c(C(=O)Nc4nccs4)nn(-c4ccccc4)c31)C2(C)C (stereo not drawn),> 150 µM (not active)
2,CC(C)c1ccc2[nH]c(O)c(N=NC(=O)c3cccc(S(=O)(=O)N4CCCCC4)c3)c2c1,110 µM (active)
3,O=C(NCc1ccccn1)C(=O)Nc1nc(C23CC4CC(CC(C4)C2)C3)cs1,6.91 µM (active)
4,O=[N+]([O-])c1ccc(N=Nc2ccc(O)cc2O)cc1,24.6 µM (active)

# Test system: not listed separately
# Assay: C. albicans growth with fluconazole, confirmation, fluorescence, retest (AID 2467)
# Format: functional, cell-based
# Conditions: not given
row,Compound,EC50
1,CSC(S)=NCc1cccnc1,1.13 µM (active)
2,CC1(C)CC(N2CCN(Cc3ccccc3)CC2)=CC(=[N+]2CCCCC2)C1,2.72 µM (active)
3,CC(C)c1ccc2c(c1)CCC1C(C)(CN)CCCC21C (stereo not drawn),> 38 µM (not active)

# Target: T1, Streptokinase A (Streptococcus pyogenes serotype M1, UniProt P10520)
# T1 sequence (P10520 whole entry): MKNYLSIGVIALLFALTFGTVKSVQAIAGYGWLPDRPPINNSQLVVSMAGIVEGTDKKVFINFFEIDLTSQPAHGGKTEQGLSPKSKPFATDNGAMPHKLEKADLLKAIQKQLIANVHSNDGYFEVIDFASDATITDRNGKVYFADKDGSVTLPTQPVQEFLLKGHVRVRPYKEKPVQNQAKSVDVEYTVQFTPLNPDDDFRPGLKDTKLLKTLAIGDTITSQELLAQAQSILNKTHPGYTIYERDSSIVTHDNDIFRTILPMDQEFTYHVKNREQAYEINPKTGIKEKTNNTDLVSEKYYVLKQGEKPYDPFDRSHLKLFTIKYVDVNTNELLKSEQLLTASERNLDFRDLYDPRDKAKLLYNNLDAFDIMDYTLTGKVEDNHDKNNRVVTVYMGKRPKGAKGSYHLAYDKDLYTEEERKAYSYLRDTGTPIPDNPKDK
# Assay: S. pyogenes streptokinase expression inhibitors, potency, dose response, plasminogen activation absorbance, OD405 (AID 1914);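 further: secreted streptokinase activity via plasminogen activation per viability signal from cell pellet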
# Format: functional, Streptococcus pyogenes M1 GAS
# Conditions: not given
row,Compound,EC50
1,CC12CCC(c3c(C(=O)Nc4nccs4)nn(-c4ccccc4)c31)C2(C)C (stereo not drawn),28.5 µM (active)
2,CC(C)c1ccc2[nH]c(O)c(N=NC(=O)c3cccc(S(=O)(=O)N4CCCCC4)c3)c2c1,> 150 µM (not active)
3,O=[N+]([O-])c1ccc(N=Nc2ccc(O)cc2O)cc1,> 50 µM (not active)

# Target: T2, Ubiquitin-conjugating enzyme E2 N (Homo sapiens, UniProt P61088);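 further: Dose-response confirmation in a TR-FRET assay detecting UBC13-driven polyubiquitin chain formation, inhibition measured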
# T2 sequence (P61088 whole entry): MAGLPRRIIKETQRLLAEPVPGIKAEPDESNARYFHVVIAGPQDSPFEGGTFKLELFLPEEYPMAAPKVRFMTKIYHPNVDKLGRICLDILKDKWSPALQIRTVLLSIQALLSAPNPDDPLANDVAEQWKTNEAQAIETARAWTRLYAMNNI
# Assay: not given
# Format: functional
# Conditions: not given
row,Compound,IC50
1,COCC(=O)O[C@]1(CCN(C)CCCc2nc3ccccc3[nH]2)CCc2cc(F)ccc2[C@@H]1C(C)C,> 20 µM (inactive)

# Test system: not listed separately
# Assay: Luminescence Cell-Based Dose Response HTS to Identify Activators of Luciferase Translation or Activity in H4 […] Cells. [Related pubchem assays: 1829 (Project Summary), 1814 (Primary HTS)]
# Format: functional
# Conditions: not given
row,Compound,EC50
1,CCOc1ccc(-c2c(=O)n(OCc3ccc([N+](=O)[O-])cc3)c3ccccc3[n+]2[O-])cc1,> 120 µM (not active)
2,CCn1cc(SCC(=O)N2CCOCC2)c2ccccc21,82.1 µM (active)
3,O=C(CSCC(=O)N1CCOCC1)Nc1nc(-c2ccc3c(c2)OCO3)cs1,56.1 µM (active)
4,COc1ccc(S(=O)(=O)N2CCN(C(=O)c3ccc([N+](=O)[O-])o3)CC2)cc1,7.51 µM (active)

# Test system: not listed separately
# Assay: inhibitors of intracellular T. cruzi replication, confirmation, NIH3T3 host cells, beta-gal luminescence (AID 2044);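 further: intracellular parasites grown in NIH/3T3 mouse fibroblasts as host cells; luminescent beta-galactosidase reporter signal from transgenic T. cruzi replicating inside host cells; inhibitors lower the luminescence signal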
# Format: functional, cell-based
# Conditions: not given
row,Compound,EC50
1,CC1(C)CC(N2CCN(Cc3ccccc3)CC2)=CC(=[N+]2CCCCC2)C1,0.289 µM (active)
2,O=[N+]([O-])c1ccc(-n2cnc3ccccc32)c([N+](=O)[O-])c1,0.485 µM (active)
3,COc1ccc(C2Nc3ccc4ccccc4c3-c3c2c(=O)oc2ccccc32)cc1 (stereo not drawn),0.204 µM (active)
4,CC(C)c1ccc2[nH]c(O)c(N=NC(=O)c3cccc(S(=O)(=O)N4CCCCC4)c3)c2c1,0.58 µM (active)
5,COc1ccc(S(=O)(=O)N2CCN(C(=O)c3ccc([N+](=O)[O-])o3)CC2)cc1,0.103 µM (active)

# Target: Luciferin 4-monooxygenase (Photinus pyralis, UniProt P08659)
# Sequence (P08659 whole entry): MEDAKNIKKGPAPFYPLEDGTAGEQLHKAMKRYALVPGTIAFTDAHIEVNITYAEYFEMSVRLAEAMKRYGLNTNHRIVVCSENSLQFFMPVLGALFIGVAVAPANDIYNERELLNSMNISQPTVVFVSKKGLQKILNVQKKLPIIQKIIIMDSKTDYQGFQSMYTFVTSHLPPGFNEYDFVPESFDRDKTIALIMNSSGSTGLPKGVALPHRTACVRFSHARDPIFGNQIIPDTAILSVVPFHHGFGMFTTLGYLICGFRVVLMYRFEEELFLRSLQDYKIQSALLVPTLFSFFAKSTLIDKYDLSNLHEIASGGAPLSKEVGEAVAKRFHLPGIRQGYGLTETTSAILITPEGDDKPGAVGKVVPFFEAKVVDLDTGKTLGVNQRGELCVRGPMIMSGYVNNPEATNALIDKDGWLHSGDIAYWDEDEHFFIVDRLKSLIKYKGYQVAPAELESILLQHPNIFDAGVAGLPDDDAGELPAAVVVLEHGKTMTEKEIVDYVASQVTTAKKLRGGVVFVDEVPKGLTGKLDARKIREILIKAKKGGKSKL
# Assay: firefly luciferase enzyme inhibitors, dose response, biochemical, luminescence (AID 1891)
# Conditions: not given
row,Compound,EC50
1,O=[N+]([O-])c1ccc(N=Nc2ccc(O)cc2O)cc1,1.05 µM (active)

# Test system: not listed separately
# Assay: growth suppression of PTEN-null colon cells, dose response, cell-based, HCT116 PTEN knockout (AID 1047);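 further: HCT116 colon tumor cells with PTEN knocked out; cells exposed to compound for 60 hours before readout; potency for loss of cell viability measured by luminescence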
# Format: functional
# Conditions: not given
row,Compound,EC50
1,O=C(Cn1c(=O)oc2cc(S(=O)(=O)N3CCCCC3)ccc21)N1CCc2ccccc21,18.4 µM (active)
2,CCOC(=O)c1sc(NC(=O)Nc2ccc(Cl)cc2)nc1C,63.5 µM (active)
3,COc1ccc(C2Nc3ccc4ccccc4c3-c3c2c(=O)oc2ccccc32)cc1 (stereo not drawn),9 µM (active)
4,CC12CCC(c3c(C(=O)Nc4nccs4)nn(-c4ccccc4)c31)C2(C)C (stereo not drawn),38.1 µM (active)
5,Cc1cc2cc(C)c3nnc(SCC(=O)Nc4ccc(S(=O)(=O)N5CCCCC5)cc4)n3c2cc1C,7.79 µM (active)
6,Cc1ccc(-c2nnc(S)n2/N=C/c2c(C)nn(-c3ccccc3)c2C)cc1,25.8 µM (active)

# Test system: not listed separately
# Assay: Luminescence Cell-Based Dose Confirmation HTS to Identify Inhibitors of Platelet Dense Granule Release. [Related pubchem assays: 1663 (Primary HTS), 1678 (Summary of Project)]
# Format: functional
# Conditions: not given
row,Compound,EC50
1,O=[N+]([O-])c1ccc(N=Nc2ccc(O)cc2O)cc1,3 µM (active)
